Data taken from patent US20240287070A1, “FUSED HETEROCYCLIC DERIVATIVES” (Janssen Sciences Ireland Unlimited Company, priority 2021, published 2024).

Tests used:
[1] = Human liver microsome stability; type: in vitro ADME; conditions: pooled human liver microsomes 0.5 mg/mL, 1 μM compound, NADPH 1 mM, 37° C., 0-60 min
Method in brief: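 Half-life came from elimination rate constant (negative slope of ln compound/internal standard area ratio over time), measured by cassette LC-MS after acetonitrile quench. Human liver microsome reactions, one replicate per compound, were initiated with NADPH (1 mM final) and sampled at six points up to 60 min.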

HepG2 or HepG2.117 cells = experiment: Cytotoxicity, ATPlite Luminescence Assay; type: cell-based, human; conditions: 3-days incubation unless marked with *
Method in brief: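 Compounds were added to cells and incubated 3 or 4 days. ATP content was then measured by luminescence to gauge cell viability.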

[2] = test system: HBV (HepG2.117 cell line, inducibly HBV producing); experiment: Anti-HBV activity, intracellular HBV DNA by real-time PCR in HepG2.117 cell line; type: cell-based, hepatitis B virus; conditions: HepG2.117 cells, 3 days of treatment
Method in brief: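 Tet-off HepG2.117; HBV replication induced (no doxycycline); serial compound dilutions, 3 d; intracellular HBV DNA by real-time PCR, HBV-specific primers/probe.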

SMILES | HLM Metabolism t1/2 [1] [h] | CC50 (HepG2 or HepG2.117 cells) [µM] | EC50 [2] [µM]
CC(c1cnn(C)c(=O)c1)N1C[C@@H](C)n2nc3c(c2C1=O)CN(C(=O)c1ccc(Cl)c(C(F)(F)F)c1)[C@H](C)C3 (single isomer, unassigned) [Compound 52B, (3R,7R)-2-(4-chloro-3-(trifluoromethyl)benzoyl)-3,7-dimethyl-9-((S*)-1-(1-methyl-6-oxo-1,6-dihydropyridazin-4-yl)ethyl)-1,2,3,4,8,9-hexahydropyrido [4′,3′:3,4]pyrazolo[1,5-a]pyrazin-10(7H)-one] | >3 | > 50 | 0.016
Cc1ncc(C(C)N2C[C@@H](C)n3nc4c(c3C2=O)CN(C(=O)c2ccc(Cl)c(Cl)c2)[C@H](C)C4)cn1 (single isomer, unassigned) [Compound 4B, (3R,7R)-2-(3,4-dichlorobenzoyl)-3,7-dimethyl-9-((S*)-1-(2-methylpyrimidin-5-yl)ethyl)-1,2,3,4,8,9-hexahydropyrido[4′,3′:3,4]pyrazolo[1,5-a]pyrazin-10(7H)-one] | >3 | > 50 | 0.057
CC(c1ccc(N2CCCC2=O)cc1)N1C[C@@H](C)n2nc3c(c2C1=O)CN(C(=O)c1ccc(Cl)c(C#N)c1)[C@H](C)C3 (single isomer, unassigned) [Compound 9B, 2-Chloro-5-((3R,7R)-3,7-dimethyl-10-oxo-9-((S*)-1-(4-(2-oxopyrrolidin-1-yl)phenyl)ethyl)-1,2,3,4,7,8,9,10-octahydropyrido[4′,3′:3,4]pyrazolo[1,5-a]pyrazine-2-carbonyl)benzonitrile] | 1.83 | > 50 | 0.02
CC(c1ccccn1)N1C[C@@H](C)n2nc3c(c2C1=O)CN(C(=O)c1ccc(Cl)c(Cl)c1)[C@H](C)C3 (single isomer, unassigned) [Compound 65B, (3R,7R)-2-(3,4-dichlorobenzoyl)-3,7-dimethyl-9-((S*)-1-(pyridin-2-yl)ethyl)-1,2,3,4,8,9-hexahydropyrido[4′,3′:3,4]pyrazolo[1,5-a]pyrazin-10(7H)-one] | 2.02 | > 50 | 0.046
CC(c1ccc(C(F)(F)F)nc1)N1C[C@@H](C)n2nc3c(c2C1=O)CN(C(=O)c1ccc(Cl)c(C#N)c1)[C@H](C)C3 (single isomer, unassigned) [Compound 12B, 2-Chloro-5-((3R,7R)-3,7-dimethyl-10-oxo-9-((S*)-1-(6-(trifluoromethyl)pyridin-3-yl)ethyl)-1,2,3,4,7,8,9,10-octahydropyrido[4′,3′:3,4]pyrazolo[1,5-a]pyrazine-2-carbonyl)benzonitrile] | >3 | > 50 | 0.068
CC(c1cn(C2CC2)c(=O)cn1)N1C[C@@H](C)n2nc3c(c2C1=O)CN(C(=O)c1ccc(Cl)c(Cl)c1)[C@H](C)C3 (single isomer, unassigned) [Compound 56B, (3R,7R)-9-((S*)-1-(4-cyclopropyl-5-oxo-4,5-dihydropyrazin-2-yl)ethyl)-2-(3,4-dichlorobenzoyl)-3,7-dimethyl-1,2,3,4,8,9-hexahydropyrido[4′,3′:3,4]pyrazolo[1,5-a]pyrazin-10(7H)-one] | 1.53 | > 50 | 0.084
CC(c1nnc(C2CC2)o1)N1C[C@@H](C)n2nc3c(c2C1=O)CN(C(=O)c1ccc(Cl)c(Cl)c1)[C@H](C)C3 (single isomer, unassigned) [Compound 44B, (3R,7R)-9-((S*)-1-(5-cyclopropyl-1,3,4-oxadiazol-2-yl)ethyl)-2-(3,4-dichlorobenzoyl)-3,7-dimethyl-1,2,3,4,8,9-hexahydropyrido[4′,3′:3,4]pyrazolo[1,5-a]pyrazin-10(7H)-one] | 2.22 | > 50 | 0.065
C[C@@H]1Cc2nn3c(c2CN1C(=O)c1ccc(Cl)c(C(F)(F)F)c1)C(=O)N([C@@H](C)c1ccc([S@@]2(=O)=NCCC2)nc1)C[C@H]3C (relative stereo) [Compound 30B, (3R,7R)-2-(4-chloro-3-(trifluoromethyl)benzoyl)-3,7-dimethyl-9-((S*)-1-(6-((R*)-1-oxido-4,5-dihydro-3H-116-isothiazol-1-yl)pyridin-3-yl)ethyl)-1,2,3,4,8,9-hexahydropyrido[4′,3′:3,4]pyrazolo[1,5-a]pyrazin-10(7H)-one] | 0.315 | > 50 | 0.074
